Test results as given in patent publication US20220372014A1, “NEUROPROTECTIVE COMPOUNDS AND METHODS OF USE THEREOF” (The Johns Hopkins University, priority 2019, published 2022).

Experiments:
MIF = biological target: T1, MIF (Homo sapiens, UniProt P14174); assay: Nuclease assay of Example 3 (MIF inhibitory activity, Table 4); type: biochemical; set-up: (%) inhibition of MIF nuclease activity: concentration or dose not given beside the values; conditions: nuclease assay of Example 3
T1 sequence (P14174 1-115): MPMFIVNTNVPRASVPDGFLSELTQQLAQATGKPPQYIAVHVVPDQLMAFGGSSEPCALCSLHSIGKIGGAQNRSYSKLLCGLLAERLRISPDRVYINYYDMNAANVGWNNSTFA
Method in brief: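 Human genomic DNA (200 ng), pcDNA (200 ng) or PS^30-type substrates (1 μM) were incubated with MIF (0.25-8 μM final) in 10 mM Tris-HCl pH 7.0, 10 mM MgCl2, 1 mM DTT at 37 °C for 1 h (pcDNA, small substrates) or 4 h (genomic DNA). Cleavage was assessed by agarose or PAGE electrophoresis with EtBr staining and chemiluminescent detection of biotin-labelled DNA.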

[1] = system: HeLa cells or neuronal cells; assay: Cell death assay of Example 3 (MNNG, alamarBlue; protection against parthanatos, Table 4); type: cell-based; conditions: 1 μM test compound, MNNG-induced cell death, alamarBlue
Method in brief: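 HeLa or neuronal cells (1×10^4/well) were pretreated 1 h at 37° C with 1 μM compound, exposed to MNNG for 15 min, washed, then re-incubated 18 h with 1 μM compound. Viability was read by alamarBlue fluorescence (ex 560/em 590 nm). Cell death was expressed relative to control wells.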

SMILES	(%) inhibition of MIF nuclease activity (MIF)	(%) inhibition of cell death [1]	(%) inhibition of cell death ([1]; 1 µM)
COc1ccc(CC[C@H]2OC(=O)[C@@H]3CCCCN3C(=O)C(=O)C(C)(C)COC(=O)C=CCCN(C)C(=O)[C@H](Cc3ccc4ccccc4c3)NC(=O)[C@H](COC(C)(C)C)N(C)C(=O)C(c3ccccc3)NC(=O)CN(C)C(=O)COc3cccc2c3)cc1OC (stereo partly shown) [compound 43]	45.6%	54.8%	
COc1ccc(CC[C@H]2OC(=O)[C@@H]3CCCCN3C(=O)C(=O)C(C)(C)COC(=O)C=CCCN(C)C(=O)CNC(=O)[C@H](COC(C)(C)C)N(C)C(=O)C(c3ccccc3)NC(=O)CN(C)C(=O)COc3cccc2c3)cc1OC (stereo partly shown) [compound 31]	22.9%	52.3%	
COc1ccc(CC[C@H]2OC(=O)[C@@H]3CCCCN3C(=O)C(=O)C(C)(C)COC(=O)C=CCCN(C)C(=O)[C@@H]3CCCN3C(=O)[C@H](COC(C)(C)C)N(C)C(=O)C(c3ccccc3)NC(=O)[C@H](C)N(C)C(=O)COc3cccc2c3)cc1OC (stereo partly shown) [compound 152]	−2.4%		43.0%
COc1ccc(CC[C@H]2OC(=O)[C@@H]3CCCCN3C(=O)C(=O)C(C)(C)COC(=O)C=CCCN(C)C(=O)[C@@H]3CCCN3C(=O)[C@H](COC(C)(C)C)N(C)C(=O)[C@H](Cc3ccccc3)N(C)C(=O)[C@H](C)NC(=O)COc3cccc2c3)cc1OC [compound 138]	−4.8%	47.0%	
COc1ccc(CC[C@H]2OC(=O)[C@@H]3CCCCN3C(=O)C(=O)C(C)(C)COC(=O)C=CCCN(C)C(=O)[C@@H]3CCCN3C(=O)[C@H](COC(C)(C)C)N(C)C(=O)C(c3ccccc3)NC(=O)[C@H](COC(C)(C)C)N(C)C(=O)COc3cccc2c3)cc1OC (stereo partly shown) [compound 146]	−1.1%	43.9%	
C[C@H]1C(=O)NC(c2ccccc2)C(=O)N(C)[C@@H](COC(C)(C)C)C(=O)N2CCC[C@H]2C(=O)N(C)CCC=CC(=O)OCC(C)(C)C(=O)C(=O)N2CCCC[C@H]2C(=O)O[C@H](CCc2ccccc2)c2cccc(c2)OCC(=O)N1C (stereo partly shown) [compound 149]	−11.8%	51.0%	
COc1ccc(CC[C@H]2OC(=O)[C@@H]3CCCCN3C(=O)C(=O)C(C)(C)COC(=O)C=CCCN(C)C(=O)[C@@H](Cc3ccccc3)NC(=O)[C@H](Cc3ccccc3)N(C)C(=O)[C@@H](C)NC(=O)CN(C)C(=O)COc3cccc2c3)cc1OC [compound 69]	20.7%	55.7%	
COc1ccc(CC[C@H]2OC(=O)[C@@H]3CCCCN3C(=O)C(=O)C(C)(C)COC(=O)C=CCCN(C)C(=O)[C@@H]3CCCN3C(=O)[C@H](CO)N(C)C(=O)C(c3ccccc3)NC(=O)C(CO)N(C)C(=O)COc3cccc2c3)cc1OC (stereo partly shown) [compound 108]	4.2%	20.4%	
COc1ccc(CC[C@H]2OC(=O)[C@@H]3CCCCN3C(=O)C(=O)C(C)(C)COC(=O)C=CCCN(C)C(=O)[C@H](CC(C)C)NC(=O)[C@H](COC(C)(C)C)N(C)C(=O)[C@H](Cc3ccc4ccccc4c3)NC(=O)[C@H](C)N(C)C(=O)COc3cccc2c3)cc1OC [compound 21]	57.9%	61.0%	
CCC[C@@H]1NC(=O)[C@H](COC(C)(C)C)N(C)C(=O)[C@@H](Cc2ccc3ccccc3c2)NC(=O)[C@H](C)N(C)C(=O)COc2cccc(c2)[C@@H](CCc2ccc(OC)c(OC)c2)OC(=O)[C@@H]2CCCCN2C(=O)C(=O)C(C)(C)COC(=O)C=CCCN(C)C1=O [compound 19]	59.9%	62.4%	
COc1ccc(CC[C@H]2OC(=O)[C@@H]3CCCCN3C(=O)C(=O)C(C)(C)COC(=O)C=CCCN(C)C(=O)[C@@H]3CCCN3C(=O)[C@H](COC(C)(C)C)N(C)C(=O)C(c3ccccc3)NC(=O)CN(C)C(=O)COc3cccc2c3)cc1OC (stereo partly shown) [compound 107]	20.0%		15.1%
COc1ccc(CC[C@H]2OC(=O)[C@@H]3CCCCN3C(=O)C(=O)C(C)(C)COC(=O)C=CCCN(C)C(=O)[C@@H]3CCCN3C(=O)[C@H](COC(C)(C)C)N(C)C(=O)[C@H](Cc3ccc4ccccc4c3)NC(=O)[C@H](C)N(C)C(=O)COc3cccc2c3)cc1OC [compound 26]	64.9%	71.2%	
COc1ccc(CC[C@H]2OC(=O)[C@@H]3CCCCN3C(=O)C(=O)C(C)(C)COC(=O)C=CCCN(C)C(=O)[C@@H]3CCCN3C(=O)[C@H](COC(C)(C)C)N(C)C(=O)[C@H](Cc3ccc(C#N)cc3)NC(=O)[C@H](C)NC(=O)COc3cccc2c3)cc1OC [compound 143]	−1.1%	46.7%	
COc1ccc(CC[C@H]2OC(=O)[C@@H]3CCCCN3C(=O)C(=O)C(C)(C)COC(=O)C=CCCN(C)C(=O)[C@@H](Cc3ccccc3)NC(=O)[C@H](C(C)C)N(C)C(=O)[C@@H](Cc3ccccc3)NC(=O)[C@H](CC(C)C)N(C)C(=O)CCC(=O)Nc3cccc2c3)cc1OC [compound 84]	10.8%	51.0%	
COc1ccc(CC[C@H]2OC(=O)[C@@H]3CCCCN3C(=O)C(=O)C(C)(C)COC(=O)C=CCCN(C)C(=O)[C@@H]3CCCN3C(=O)[C@H](COC(C)(C)C)N(C)C(=O)[C@@H](CC(C)C)NC(=O)CN(C)C(=O)COc3cccc2c3)cc1OC [compound 11]	25.6%	48.9%	
COCC[C@@H]1NC(=O)[C@H](C(C)C)N(C)C(=O)[C@@H](Cc2ccccc2)NC(=O)[C@H](CC(C)C)N(C)C(=O)CCC(=O)Nc2cccc(c2)[C@@H](CCc2ccc(OC)c(OC)c2)OC(=O)[C@@H]2CCCCN2C(=O)C(=O)C(C)(C)COC(=O)C=CCCN(C)C1=O [compound 80]	10.3%	49.5%	
COc1ccc(CC[C@H]2OC(=O)[C@@H]3CN(C)CCN3C(=O)C(=O)C(C)(C)COC(=O)C=CCCN(C)C(=O)[C@@H]3CCCN3C(=O)[C@H](COC(C)(C)C)N(C)C(=O)C(c3ccccc3)NC(=O)[C@H](C)N(C)C(=O)COc3cccc2c3)cc1OC (stereo partly shown) [compound 118]	9.0%	50.8%	

Now from value to molecule, other results behind:

(%) inhibition of MIF nuclease activity (MIF)	SMILES	(%) inhibition of cell death [1]	(%) inhibition of cell death ([1]; 1 µM)
8.7%	COc1ccc(CC[C@H]2OC(=O)[C@@H]3CCCCN3C(=O)C(=O)C(C)(C)COC(=O)C=CCCN(C)C(=O)C(c3ccccc3)NC(=O)[C@H](COC(C)(C)C)N(C)C(=O)[C@@H](CC(C)C)NC(=O)CN(C)C(=O)COc3cccc2c3)cc1OC (stereo partly shown) [compound 15]	53.4%	
25.3%	COc1ccc(CC[C@H]2OC(=O)[C@@H]3CCCCN3C(=O)C(=O)C(C)(C)COC(=O)C=CCCN(C)C(=O)CNC(=O)[C@H](COC(C)(C)C)N(C)C(=O)[C@@H](CC(C)C)NC(=O)CN(C)C(=O)COc3cccc2c3)cc1OC [compound 1]	43.6%	
18.0%	COCC[C@@H]1NC(=O)[C@H](COC(C)(C)C)N(C)C(=O)C(c2ccccc2)NC(=O)[C@H](C)N(C)C(=O)COc2cccc(c2)[C@@H](CCc2ccc(OC)c(OC)c2)OC(=O)[C@@H]2CCCCN2C(=O)C(=O)C(C)(C)COC(=O)C=CCCN(C)C1=O (stereo partly shown) [compound 50]	56.4%	
30.0%	COc1ccc(CC[C@H]2OC(=O)[C@@H]3CCCCN3C(=O)C(=O)C(C)(C)COC(=O)C=CCCN(C)C(=O)[C@H](C(C)C)NC(=O)[C@H](COC(C)(C)C)N(C)C(=O)C(c3ccccc3)NC(=O)CN(C)C(=O)COc3cccc2c3)cc1OC (stereo partly shown) [compound 44]	52.2%	
14.7%	CCC[C@@H]1NC(=O)[C@H](COC(C)(C)C)N(C)C(=O)C(c2ccccc2)NC(=O)[C@H](C)N(C)C(=O)COc2cccc(c2)[C@@H](CCc2ccc(OC)c(OC)c2)OC(=O)[C@@H]2CCCCN2C(=O)C(=O)C(C)(C)COC(=O)C=CCCN(C)C1=O (stereo partly shown) [compound 49]	60.0%	
40.8%	COc1ccc(CC[C@H]2OC(=O)[C@@H]3CCCCN3C(=O)C(=O)C(C)(C)COC(=O)C=CCCN(C)C(=O)[C@H](CC3CCCCC3)NC(=O)[C@H](COC(C)(C)C)N(C)C(=O)C(c3ccccc3)NC(=O)CN(C)C(=O)COc3cccc2c3)cc1OC (stereo partly shown) [compound 42]	53.2%	
15.3%	COc1ccc(CC[C@H]2OC(=O)[C@@H]3CCCCN3C(=O)C(=O)C(C)(C)COC(=O)C=CCCN(C)C(=O)[C@H](C)NC(=O)[C@H](COC(C)(C)C)N(C)C(=O)[C@@H](CC(C)C)NC(=O)CN(C)C(=O)COc3cccc2c3)cc1OC [compound 2]	41.1%	
21.9%	COc1ccc(CC[C@H]2OC(=O)[C@@H]3CCCCN3C(=O)C(=O)C(C)(C)COC(=O)C=CCCN(C)C(=O)[C@H](Cc3ccc4ccccc4c3)NC(=O)[C@H](COC(C)(C)C)N(C)C(=O)[C@@H](CC(C)C)NC(=O)CN(C)C(=O)COc3cccc2c3)cc1OC [compound 13]	46.7%	
30.1%	COc1ccc(CC[C@H]2OC(=O)[C@@H]3CCCCN3C(=O)C(=O)C(C)(C)COC(=O)C=CCCN(C)C(=O)[C@@H](CC(C)C)NC(=O)[C@H](COC(C)(C)C)N(C)C(=O)[C@@H](CC(C)C)NC(=O)CN(C)C(=O)COc3cccc2c3)cc1OC [compound 7]	54.5%	
